target: T1, human B1 (Homo sapiens, UniProt P46663); assay: Calcium flux assay for Bradykinin B1 antagonist, CHO-K1 cell line expressing human B1; format: cell-based; settings: CHO-K1 cells expressing human B1, agonist Lys-(Des-Arg)-Bradykinin, read-out: Potency (IC50 value against human B1)
T1 construct: host or cells: CHO-K1
T1 sequence (P46663 1-353): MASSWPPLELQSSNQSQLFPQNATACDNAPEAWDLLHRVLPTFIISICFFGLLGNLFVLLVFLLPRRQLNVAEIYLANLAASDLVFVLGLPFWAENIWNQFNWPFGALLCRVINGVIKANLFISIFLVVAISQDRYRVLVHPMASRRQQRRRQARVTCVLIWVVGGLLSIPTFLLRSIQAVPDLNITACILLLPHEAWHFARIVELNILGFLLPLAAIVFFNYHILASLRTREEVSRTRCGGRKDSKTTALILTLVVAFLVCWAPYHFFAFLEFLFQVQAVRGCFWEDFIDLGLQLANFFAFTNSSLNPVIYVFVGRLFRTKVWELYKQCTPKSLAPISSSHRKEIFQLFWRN
Protocol: Calcium Flux Assay for Bradykinin B1 Antagonist
The potency to inhibit the Bradykinin B1 receptors was determined for the compounds of this invention in a cell-based fluorescent calcium-mobilization assay. The assay measures the ability of test compounds to inhibit Bradykinin B1 receptor agonist-induced increase of intracellular free Ca^2+ in cell lines expressing B1.
The change of the intracellular Ca^2+ concentration is monitored with a specifically designed fluorescent plate reader (FlexStation, Molecular Devices).
CHO-K1 cell line expressing human B1 was purchased from Euroscreen (Gosselies, Belgium, with reference name hBl-D1). CHO-K1 cell lines expressing rat B1 or mouse B1 were established in the following way: the full-length receptor-coding cDNA clones were obtained by PCR performed on rat or mouse brain cDNAs. The respective cDNAs were cloned into an expression vector under the control of a CMV promotor. The resultant plasmids were introduced into CHO-K1 cells with liposome technology (FuGENE; Roche Diagnostics, Basel), according to the standard protocols described by the manufacturer. Cell lines expressing a Bradykinin receptor were selected in the culture medium containing 400 μg/ml G418 (Sigma). From selected cell populations, monoclonal cell lines were isolated by single cell cloning. The expression of Bradykinin receptors was confirmed by immunofluorescence staining of the cells, as well as by calcium flux assay.
Human B1-expressing cells were grown in Nutrient Mixture Ham's F12 (Sigma) containing 10% Foetal bovine serum (Sigma) and 400 μg/ml G418 (Sigma), 5 μg/ml puromycim (Sigma); Rat B1 and mouse B1-expressing cells were grown in DMEM/F12 medium (Sigma) containing 10% Foetal bovine serum (Sigma) and 400 μg/ml G418 (Sigma).
For the calcium flux assay, 80% confluent cells were detached from the culture vessels with Versene (Gibco; for human B1 cell-line) or with 1× trypsin-EDTA solution (Sigma; for rodent B1 cell-line), and seeded into 384-well plates (Cell binding Surface; Corning, N.Y.; #3683) at a density of 15,000 cells per well for human B1 or at a density of 20,000 cells per well for rodent B1. Cells were seeded in a volume of 50 μl in medium without antibiotics and incubated overnight in a humidified atmosphere with 5% CO2 at 37° C. The following day, the medium was replaced with 20 μl of 5 μM Fluo-4AM dye (Molecular Probes) in assay buffer (2.5 mM probenicid, 1 mg/ml pluronic acid, 0.1% BSA, 135 mM NaCl, 5 mM KCl, 1.8 mM CaCl, 1 mM MgCl2, 10 mM HEPES, 5.6 mM glucose, 0.05% gelatine, pH 7.4). The calcium indicator loaded cells were incubated at 37° C. for 2 hrs. Extracellular dye was then removed and each well was filled with 45 μl of assay buffer. Cell plates were kept in dark until used. Test compounds were assayed at 8 concentrations in triplicate. Serial 10-fold dilutions in 100% DMSO were made at a 100-times higher concentration than the final concentration, and then diluted 1:10 in assay buffer. 5 μl of each diluted compound was added to the well of cell plates (yielding final concentration with 1% DMSO), and incubated for 30 min at 25° C. before the addition of B1 agonist on the FlexStation.
The addition of agonist 20 μl per well to the assay plate was carried out on the FlexStation while continuously monitoring Ca^2+-dependent fluorescence at 538 nm. The integrated values, normalized with the background fluorescence, were plotted against the logarithm of the antagonist concentrations.

Row | IC50 | SMILES
1 | 100 to 1000 nM | CN(Cc1cc(C(=O)NCc2ccc(CN3CCCC3)cc2)co1)S(=O)(=O)c1c(Cl)cc(Br)cc1Cl [Ex 27, 5-({[(4-bromo-2,6-dichlorophenyl)sulfonyl](methyl)amino}methyl)-N-[4-(pyrrolidin-1-ylmethyl)benzyl]furan-3-carboxamide]
2 | < 10 nM | COc1cc(C)c(S(=O)(=O)N(C)Cc2cc(C(=O)N(C)Cc3ccc(C4=NCCN4)cc3)co2)c(C)c1 [Ex 29, N-[4-(4,5-dihydro-1H-imidazol-2-yl)benzyl]-5-({[(4-methoxy-2,6-dimethylphenyl)sulfonyl](methyl)amino}methyl)-N-methylfuran-3-carboxamide]
3 | 100 to 1000 nM | COc1cc(C)c(S(=O)(=O)N(C)Cc2cc(C(=O)N3CCN(CCc4ccncc4)CC3)co2)c(C)c1 [Ex 33, 4-methoxy-N,2,6-trimethyl-N-[(4-{[4-(2-pyridin-4-ylethyl)piperazin-1-yl]carbonyl}furan-2-yl)methyl]benzenesulfonamide]
4 | 100 to 1000 nM | COc1cc(C)c(S(=O)(=O)N(C)Cc2cc(C(=O)N3CCN(Cc4ccncc4)CC3)co2)c(C)c1 [Ex 34, 4-methoxy-N,2,6-trimethyl-N-[(4-{[4-(pyridin-4-ylmethyl)piperazin-1-yl]carbonyl}furan-2-yl)methyl]benzenesulfonamide]
5 | 10 to 100 nM | COc1cc(C)c(S(=O)(=O)N(C)Cc2cc(C(=O)NCCc3ccc(C4=N[C@@H]5CCCC[C@H]5N4)cc3)co2)c(C)c1 [Ex 36, N-(2-{4-[(3aR,7aR)-3a,4,5,6,7,7a-hexahydro-1H-benzimidazol-2-yl]phenyl}ethyl)-5-({[(4-methoxy-2,6-dimethylphenyl)sulfonyl](methyl)amino}methyl)furan-3-carboxamide]
6 | 100 to 1000 nM | COc1cc(C)c(S(=O)(=O)N(C)Cc2cc(C(=O)NCc3ccc(CN4CCCC4)cc3)co2)c(C)c1 [Ex 37, 5-({[(4-methoxy-2,6-dimethylphenyl)sulfonyl](methyl)amino}methyl)-N-[4-(pyrrolidin-1-ylmethyl)benzyl]furan-3-carboxamide]
7 | 100 to 1000 nM | COc1cc(C)c(S(=O)(=O)N(C)Cc2cc(C(=O)N3CCN(CCN4CCCC4)CC3)co2)c(C)c1 [Ex 39, 4-methoxy-N,2,6-trimethyl-N-[(4-{[4-(2-pyrrolidin-1-ylethyl)piperazin-1-yl]carbonyl}furan-2-yl)methyl]benzenesulfonamide]
8 | 100 to 1000 nM | COc1cc(C)c(S(=O)(=O)N(C)Cc2cc(C(=O)N3CCC(CN4CCCC4)CC3)co2)c(C)c1 [Ex 41, 4-methoxy-N,2,6-trimethyl-N-[(4-{[4-(pyrrolidin-1-ylmethyl)piperidin-1-yl]carbonyl}furan-2-yl)methyl]benzenesulfonamide]
9 | 100 to 1000 nM | COc1cc(C)c(S(=O)(=O)N(C)Cc2cc(C(=O)NCCc3ccc(CNCC(C)C)cc3)co2)c(C)c1 [Ex 42, 5-({[(4-methoxy-2,6-dimethylphenyl)sulfonyl](methyl)amino}methyl)-N-[2-(4-{[(2-methylpropyl)amino]methyl}phenyl)ethyl]furan-3-carboxamide]

More lines, now with the values behind:

Row | SMILES | IC50
10 | CN(Cc1ccc(C2=NCCN2)cc1)C(=O)c1coc(CN(C)S(=O)(=O)c2c(Cl)cccc2Cl)c1 [Ex 23, 5-({[(2,6-dichlorophenyl)sulfonyl](methyl)amino}methyl)-N-[4-(4,5-dihydro-1H-imidazol-2-yl)benzyl]-N-methylfuran-3-carboxamide] | < 10 nM
11 | CN(CCc1ccc(C2=NCCN2)cc1)C(=O)c1coc(CN(C)S(=O)(=O)c2c(Cl)cc(Br)cc2Cl)c1 [Ex 24, 5-({[(4-bromo-2,6-dichlorophenyl)sulfonyl](methyl)amino}methyl)-N-{2-[4-(4,5-dihydro-1H-imidazol-2-yl)phenyl]ethyl}-N-methylfuran-3-carboxamide] | < 10 nM
12 | CN(Cc1cc(C(=O)NCCc2ccc(C3=NCCN3)cc2)co1)S(=O)(=O)c1c(Cl)cc(Br)cc1Cl [Ex 25, 5-({[(4-bromo-2,6-dichlorophenyl)sulfonyl](methyl)amino}methyl)-N-{2-[4-(4,5-dihydro-1H-imidazol-2-yl)phenyl]ethyl}furan-3-carboxamide] | 100 to 1000 nM
13 | CN(Cc1cc(C(=O)NCc2ccc(C3=NCCN3)cc2)co1)S(=O)(=O)c1c(Cl)cccc1Cl [Ex 26, 5-({[(2,6-dichlorophenyl)sulfonyl](methyl)amino}methyl)-N-[4-(4,5-dihydro-1H-imidazol-2-yl)benzyl]furan-3-carboxamide] | 100 to 1000 nM
14 | Cc1cc(S(=O)(=O)N(C)Cc2cc(C(=O)N(C)CCc3ccc(C4=NCCN4)cc3)co2)c(C)cc1Cl [Ex 28, 5-({[(4-chloro-2,5-dimethylphenyl)sulfonyl](methyl)amino}methyl)-N-{2-[4-(4,5-dihydro-1H-imidazol-2-yl)phenyl]ethyl}-N-methylfuran-3-carboxamide] | 100 to 1000 nM
15 | COc1cc(C)c(S(=O)(=O)N(C)Cc2cc(C(=O)N3CCCC(c4ccc(C5=NCCN5)cc4)C3)co2)c(C)c1 (stereo not drawn) [Ex 30, N-{[4-({3-[4-(4,5-dihydro-1H-imidazol-2-yl)phenyl]piperidin-1-yl}carbonyl)furan-2-yl]methyl}-4-methoxy-N,2,6-trimethylbenzenesulfonamide] | < 10 nM
16 | COc1cc(C)c(S(=O)(=O)N(C)Cc2cc(C(=O)N3CCN(CC4CCCN(C)C4)CC3)co2)c(C)c1 (stereo not drawn) [Ex 31, 4-methoxy-N,2,6-trimethyl-N-{[4-({4-[(1-methylpiperidin-3-yl)methyl]piperazin-1-yl}carbonyl)furan-2-yl]methyl}benzenesulfonamide] | 10 to 100 nM
17 | COc1cc(C)c(S(=O)(=O)N(C)Cc2cc(C(=O)N3CCN(CC4CCN(C)CC4)CC3)co2)c(C)c1 [Ex 32, 4-methoxy-N,2,6-trimethyl-N-{[4-({4-[(1-methylpiperidin-4-yl)methyl]piperazin-1-yl}carbonyl)furan-2-yl]methyl}benzenesulfonamide] | 100 to 1000 nM
18 | COc1cc(C)c(S(=O)(=O)N(C)Cc2cc(C(=O)N3CCN(CCN4CCOCC4)CC3)co2)c(C)c1 [Ex 35, 4-methoxy-N,2,6-trimethyl-N-[(4-{[4-(2-morpholin-4-ylethyl)piperazin-1-yl]carbonyl}furan-2-yl)methyl]benzenesulfonamide] | 100 to 1000 nM
19 | COc1cc(C)c(S(=O)(=O)N(C)Cc2cc(C(=O)N(C)Cc3ccc(-c4cncnc4)cc3)co2)c(C)c1 [Ex 38, 5-({[(4-methoxy-2,6-dimethylphenyl)sulfonyl](methyl)amino}methyl)-N-methyl-N-(4-pyrimidin-5-ylbenzyl)furan-3-carboxamide] | 100 to 1000 nM
20 | COc1cc(C)c(S(=O)(=O)N(C)Cc2cc(C(=O)N(C)Cc3ccc(C4=NCC(C)(C)CN4)cc3)co2)c(C)c1 [Ex 40, N-[4-(5,5-dimethyl-1,4,5,6-tetrahydropyrimidin-2-yl)benzyl]-5-({[(4-methoxy-2,6-dimethylphenyl)sulfonyl](methyl)amino}methyl)-N-methylfuran-3-carboxamide] | 100 to 1000 nM
21 | COc1cc(C)c(S(=O)(=O)N(C)Cc2cc(C(=O)N(C)Cc3ccc(-c4nccn4C)cc3)co2)c(C)c1 [Ex 43, 5-({[(4-methoxy-2,6-dimethylphenyl)sulfonyl](methyl)amino}methyl)-N-methyl-N-[4-(1-methyl-1H-imidazol-2-yl)benzyl]furan-3-carboxamide] | 100 to 1000 nM

Source: US8623859B2, “Bradykinin B1 antagonists” (Evotec AG, priority 2008, dated 2014)
